Laboratory results reported in PubChem BioAssay (NCI).
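Following 48 hours of exposure in 96-well plates, responses at five concentrations were used to interpolate endpoints linearly. TGI: total growth inhibition.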

Assays:
Assay in all cases: NCI-60 cell line screen, 48 h
HL-60(TB) leukemia = system: HL-60(TB) leukemia
UO-31 renal = system: UO-31 renal
UACC-62 melanoma = system: UACC-62 melanoma
K-562 leukemia = system: K-562 leukemia
SK-OV-3 ovarian = system: SK-OV-3 ovarian
786-0 renal = system: 786-0 renal
HOP-92 NSCLC = system: HOP-92 NSCLC
SN12C renal = system: SN12C renal
SF-268 CNS = system: SF-268 CNS
T-47D breast = system: T-47D breast
CAKI-1 renal = system: CAKI-1 renal
NCI-H460 lung = system: NCI-H460 lung
SW-620 colon = system: SW-620 colon
MDA-MB-435 = system: MDA-MB-435
MOLT-4 leukemia = system: MOLT-4 leukemia
LOX IMVI melanoma = system: LOX IMVI melanoma
HT29 colon = system: HT29 colon
PC-3 prostate = system: PC-3 prostate
RXF 393 renal = system: RXF 393 renal
NCI/ADR-RES ovarian = system: NCI/ADR-RES ovarian
HCT-116 colon = system: HCT-116 colon
KM12 colon = system: KM12 colon
EKVX NSCLC = system: EKVX NSCLC
RPMI-8226 leukemia = system: RPMI-8226 leukemia
NCI-H226 lung = system: NCI-H226 lung
NCI-H23 lung = system: NCI-H23 lung
M14 melanoma = system: M14 melanoma
OVCAR-3 ovarian = system: OVCAR-3 ovarian
DU-145 prostate = system: DU-145 prostate
OVCAR-5 ovarian = system: OVCAR-5 ovarian
SR leukemia = system: SR leukemia
A549 NSCLC = system: A549 NSCLC
IGROV1 ovarian = system: IGROV1 ovarian
MDA-MB-231 breast = system: MDA-MB-231 breast
HS 578T breast = system: HS 578T breast
ACHN renal = system: ACHN renal
NCI-H522 lung = system: NCI-H522 lung
MCF7 breast = system: MCF7 breast
CCRF-CEM leukemia = system: CCRF-CEM leukemia
SNB-75 CNS = system: SNB-75 CNS
SK-MEL-28 melanoma = system: SK-MEL-28 melanoma
HCC-2998 colon = system: HCC-2998 colon
OVCAR-4 ovarian = system: OVCAR-4 ovarian
OVCAR-8 ovarian = system: OVCAR-8 ovarian
COLO 205 colon = system: COLO 205 colon
HOP-62 NSCLC = system: HOP-62 NSCLC
SNB-19 CNS = system: SNB-19 CNS
SK-MEL-5 melanoma = system: SK-MEL-5 melanoma
HCT-15 colon = system: HCT-15 colon
UACC-257 melanoma = system: UACC-257 melanoma
MALME-3M melanoma = system: MALME-3M melanoma
SF-539 CNS = system: SF-539 CNS
TK-10 renal = system: TK-10 renal
SF-295 CNS = system: SF-295 CNS
MDA-N = system: MDA-N
A498 renal = system: A498 renal
U251 CNS = system: U251 CNS
SK-MEL-2 melanoma = system: SK-MEL-2 melanoma

`CC(C)N1CN(c2ccccc2)C2(CCN(CCCC(=O)c3ccc(F)cc3)CC2)C1=O` showed a TGI (HL-60(TB) leukemia) of 40.7 µM, a TGI (UO-31 renal) of 58 µM and a TGI (UACC-62 melanoma) of 38.7 µM. The TGI (K-562 leukemia) was 69.7 µM, the TGI (SK-OV-3 ovarian) was greater than 100 µM and the TGI (786-0 renal) was greater than 60.7 µM. It also gave a TGI (HOP-92 NSCLC) of 16.6 µM, a TGI (SN12C renal) greater than 55.4 µM and a TGI (SF-268 CNS) greater than 63.4 µM. It also gave a TGI (T-47D breast) of 40.8 µM, a TGI (CAKI-1 renal) of 34.7 µM and a TGI (NCI-H460 lung) of 54.2 µM. For the same compound, the TGI (SW-620 colon) was 24.2 µM, the TGI (MDA-MB-435) was 27.6 µM and the TGI (MOLT-4 leukemia) was 47.3 µM. For the same compound, the TGI (LOX IMVI melanoma) was 20.2 µM, the TGI (HT29 colon) was 7.85 µM and the TGI (PC-3 prostate) was greater than 71 µM. For the same compound, the TGI (RXF 393 renal) was greater than 82.2 µM, the TGI (NCI/ADR-RES ovarian) was 31.1 µM and the TGI (HCT-116 colon) was 5.52 µM. It also gave a TGI (KM12 colon) of 42.1 µM, a TGI (EKVX NSCLC) greater than 100 µM and a TGI (RPMI-8226 leukemia) of 31.1 µM. It also gave a TGI (NCI-H226 lung) of 46.4 µM, a TGI (NCI-H23 lung) of 28.1 µM and a TGI (M14 melanoma) of 31.1 µM. The TGI (OVCAR-3 ovarian) was 65.6 µM, the TGI (DU-145 prostate) was 24.2 µM and the TGI (OVCAR-5 ovarian) was 30.9 µM. For the same compound, the TGI (SR leukemia) was 46.1 µM, the TGI (A549 NSCLC) was greater than 100 µM and the TGI (IGROV1 ovarian) was 17.5 µM. The TGI (MDA-MB-231 breast) was 26.6 µM, the TGI (HS 578T breast) was 49.1 µM and the TGI (ACHN renal) was 42.5 µM. It also gave a TGI (NCI-H522 lung) of 49.8 µM, a TGI (MCF7 breast) of 13.1 µM and a TGI (CCRF-CEM leukemia) of 9.61 µM. It also gave a TGI (SNB-75 CNS) greater than 91.6 µM, a TGI (SK-MEL-28 melanoma) of 36.7 µM and a TGI (HCC-2998 colon) of 27.7 µM. For the same compound, the TGI (OVCAR-4 ovarian) was greater than 76 µM, the TGI (OVCAR-8 ovarian) was greater than 82 µM and the TGI (COLO 205 colon) was 1.7 µM. The TGI (HOP-62 NSCLC) was 11.9 µM, the TGI (SNB-19 CNS) was greater than 56 µM and the TGI (SK-MEL-5 melanoma) was 6.53 µM. The TGI (HCT-15 colon) was 40.5 µM, the TGI (UACC-257 melanoma) was 8.94 µM and the TGI (MALME-3M melanoma) was 29.6 µM. For the same compound, the TGI (SF-539 CNS) was 22.1 µM, the TGI (TK-10 renal) was greater than 49.5 µM and the TGI (SF-295 CNS) was 26.9 µM. It also gave a TGI (MDA-N) of 36.6 µM, a TGI (A498 renal) of 7.06 µM and a TGI (U251 CNS) greater than 100 µM. For the same compound, the TGI (SK-MEL-2 melanoma) was 28.3 µM.
